The values that follow come from ChEMBL document CHEMBL1201862, “PubChem BioAssay data set” (2004).

The source made the active and inactive calls.

For assay [1], the target named is T1, Sentrin-specific protease 6 (Homo sapiens, UniProt Q9GZR1).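 Also: Luminescence-based dose-response confirmatory assay of SENP6 inhibition, following up an ultra-high-throughput screen.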
T1 sequence (Q9GZR1 whole entry): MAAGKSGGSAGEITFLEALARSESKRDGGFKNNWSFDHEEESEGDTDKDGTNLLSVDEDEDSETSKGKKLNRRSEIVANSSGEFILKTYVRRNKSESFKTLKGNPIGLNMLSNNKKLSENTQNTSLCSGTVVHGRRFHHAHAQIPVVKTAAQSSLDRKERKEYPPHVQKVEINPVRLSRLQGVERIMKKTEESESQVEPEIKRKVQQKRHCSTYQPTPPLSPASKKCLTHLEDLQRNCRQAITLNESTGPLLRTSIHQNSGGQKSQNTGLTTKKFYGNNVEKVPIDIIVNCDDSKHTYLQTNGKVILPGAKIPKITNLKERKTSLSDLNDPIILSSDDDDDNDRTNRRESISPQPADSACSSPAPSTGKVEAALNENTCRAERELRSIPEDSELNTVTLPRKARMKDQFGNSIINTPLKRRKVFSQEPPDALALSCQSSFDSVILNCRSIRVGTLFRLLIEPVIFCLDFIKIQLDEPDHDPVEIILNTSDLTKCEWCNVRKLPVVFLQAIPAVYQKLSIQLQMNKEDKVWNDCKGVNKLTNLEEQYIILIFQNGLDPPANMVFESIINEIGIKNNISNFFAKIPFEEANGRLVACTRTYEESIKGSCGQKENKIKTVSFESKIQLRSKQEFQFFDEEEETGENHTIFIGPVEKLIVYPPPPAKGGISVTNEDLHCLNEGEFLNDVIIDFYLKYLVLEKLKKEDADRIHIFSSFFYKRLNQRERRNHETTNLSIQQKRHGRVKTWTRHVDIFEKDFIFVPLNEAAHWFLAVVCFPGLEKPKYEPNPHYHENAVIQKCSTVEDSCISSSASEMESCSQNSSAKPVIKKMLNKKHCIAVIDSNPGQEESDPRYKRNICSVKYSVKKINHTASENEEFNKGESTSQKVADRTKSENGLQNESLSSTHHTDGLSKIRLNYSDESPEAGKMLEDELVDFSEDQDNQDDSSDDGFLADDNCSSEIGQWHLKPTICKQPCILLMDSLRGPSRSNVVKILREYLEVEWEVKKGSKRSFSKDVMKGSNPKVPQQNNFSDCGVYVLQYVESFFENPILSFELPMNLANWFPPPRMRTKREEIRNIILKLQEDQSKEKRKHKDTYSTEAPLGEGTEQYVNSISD
Type of assay: functional.

Assay [2] deals with T2, Sentrin-specific protease 8 (Homo sapiens, UniProt Q96LD8).
T2 sequence (Q96LD8 whole entry): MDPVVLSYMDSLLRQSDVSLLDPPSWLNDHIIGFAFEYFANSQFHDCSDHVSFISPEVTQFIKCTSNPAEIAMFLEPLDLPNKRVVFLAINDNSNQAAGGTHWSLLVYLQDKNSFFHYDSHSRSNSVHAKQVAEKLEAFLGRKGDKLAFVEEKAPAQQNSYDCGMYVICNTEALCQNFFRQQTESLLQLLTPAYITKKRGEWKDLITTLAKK
It is filed as functional.

In assay [3] the target is 1-phosphatidylinositol 4,5-bisphosphate phosphodiesterase beta-3 (Homo sapiens, UniProt Q01970). In words: Fluorescence-based biochemical high throughput dose response assay to identify inhibitors of phospholipase C isozymes (PLC-B3).
1-phosphatidylinositol 4,5-bisphosphate phosphodiesterase beta-3, sequence (Q01970 whole entry): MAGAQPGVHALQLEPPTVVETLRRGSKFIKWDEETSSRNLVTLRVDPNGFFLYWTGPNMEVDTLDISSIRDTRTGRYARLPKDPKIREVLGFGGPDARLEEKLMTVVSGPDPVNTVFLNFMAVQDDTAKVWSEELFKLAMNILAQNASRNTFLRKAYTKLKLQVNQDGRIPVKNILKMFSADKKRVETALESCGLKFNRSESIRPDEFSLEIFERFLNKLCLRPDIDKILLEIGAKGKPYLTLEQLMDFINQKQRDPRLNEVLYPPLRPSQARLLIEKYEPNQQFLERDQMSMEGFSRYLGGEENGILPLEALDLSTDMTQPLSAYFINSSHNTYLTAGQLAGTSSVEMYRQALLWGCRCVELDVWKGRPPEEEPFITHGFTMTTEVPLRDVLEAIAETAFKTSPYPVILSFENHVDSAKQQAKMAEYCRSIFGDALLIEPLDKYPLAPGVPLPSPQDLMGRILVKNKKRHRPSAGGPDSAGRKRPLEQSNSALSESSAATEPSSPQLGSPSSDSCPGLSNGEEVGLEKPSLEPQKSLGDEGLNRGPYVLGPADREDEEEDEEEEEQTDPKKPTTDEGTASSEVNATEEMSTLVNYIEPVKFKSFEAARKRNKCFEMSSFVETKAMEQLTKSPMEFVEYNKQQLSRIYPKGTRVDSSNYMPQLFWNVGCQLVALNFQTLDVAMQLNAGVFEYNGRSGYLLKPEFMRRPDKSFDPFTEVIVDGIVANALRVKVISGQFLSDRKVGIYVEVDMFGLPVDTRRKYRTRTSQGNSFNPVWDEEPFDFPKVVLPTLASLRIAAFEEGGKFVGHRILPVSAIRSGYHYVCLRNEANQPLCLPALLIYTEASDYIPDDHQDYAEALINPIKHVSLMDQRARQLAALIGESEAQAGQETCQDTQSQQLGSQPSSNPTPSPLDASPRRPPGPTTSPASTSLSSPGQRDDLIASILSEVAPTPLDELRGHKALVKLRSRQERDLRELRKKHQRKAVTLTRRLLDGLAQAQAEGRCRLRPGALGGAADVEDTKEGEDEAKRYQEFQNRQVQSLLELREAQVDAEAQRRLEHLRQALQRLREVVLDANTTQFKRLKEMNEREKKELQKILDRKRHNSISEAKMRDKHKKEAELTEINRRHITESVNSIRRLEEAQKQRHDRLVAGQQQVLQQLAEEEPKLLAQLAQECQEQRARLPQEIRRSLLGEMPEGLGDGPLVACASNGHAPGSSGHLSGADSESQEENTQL
The nature of assay [4]: Luminescence Cell-Based Dose Response HTS to Identify Inhibitors of 5'UTR Stem-Loop Driven Prion Protein mRNA Translation in H4 Neuroglioblastoma Cells. [Related pubchem assays: 1827 (Project Summary), 1813 (Primary HTS)]. Type of assay: functional.
The nature of assay [5]: THP-1 cell cytotoxicity, dose response, cytotoxicity control for non-replicating M. tuberculosis project (AID 489025). Type of assay: functional.
Assay [6] concerns the target Voltage-gated N-type calcium channel alpha-1B subunit/Amyloid beta A4 precursor protein-binding family A member 1 (Homo sapiens, UniProt Q00975+Q02410). It is filed as protein assay.
The target of assay [7] is Small ubiquitin-related modifier 2 (Homo sapiens, UniProt P61956). In words: inhibitors of SUMO2 protein-protein interaction, dose response, selectivity assay for SUMO1 interaction inhibitor project, biochemical, FRET, human SUMO2, uHTS hits (AID 624384). Type of assay: functional. The conditions noted are these: read-out: IC50_Mean.
Small ubiquitin-related modifier 2, sequence (P61956 whole entry): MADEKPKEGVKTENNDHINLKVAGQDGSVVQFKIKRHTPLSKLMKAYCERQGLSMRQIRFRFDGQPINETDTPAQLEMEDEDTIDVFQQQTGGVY
Assay [8] can be described thus: inhibitors of intracellular T. cruzi replication, confirmation, NIH3T3 host cells, beta-gal luminescence (AID 2044).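 Also: intracellular parasites grown in NIH/3T3 mouse fibroblasts as host cells; luminescent beta-galactosidase reporter signal from transgenic T. cruzi replicating inside host cells; inhibitors lower the luminescence signal.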 It is filed as functional, cell-based.
Assay [9] is described as follows: C. albicans growth with fluconazole, confirmation, fluorescence, retest (AID 2467). Type of assay: functional, cell-based.
Assay [10] has as its target Caspase-7 (Homo sapiens, UniProt P55210). Kind of assay: human caspase-7 inhibitors, dose response, selectivity assay for caspase-6 inhibitor project, biochemical, DEVD-R110 fluorescence, cherry-pick (AID 743295). It is filed as […].
Assay [11] deals with T3, Type-1 angiotensin II receptor (Homo sapiens, UniProt P30556).
T3 sequence (P30556 whole entry): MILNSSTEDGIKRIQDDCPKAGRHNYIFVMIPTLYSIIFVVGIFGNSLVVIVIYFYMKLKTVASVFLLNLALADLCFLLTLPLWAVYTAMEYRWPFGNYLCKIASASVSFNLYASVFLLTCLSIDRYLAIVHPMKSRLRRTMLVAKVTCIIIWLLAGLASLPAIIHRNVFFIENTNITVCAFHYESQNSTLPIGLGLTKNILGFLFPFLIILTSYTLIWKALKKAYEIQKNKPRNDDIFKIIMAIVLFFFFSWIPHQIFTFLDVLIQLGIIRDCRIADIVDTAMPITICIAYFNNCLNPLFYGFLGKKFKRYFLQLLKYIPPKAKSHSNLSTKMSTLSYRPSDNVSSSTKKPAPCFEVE
Kind of assay: AT1 receptor agonists, dose response, selectivity assay for APJ receptor agonist project, cell-based, uHTS hits (AID 488865).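 Also: beta-arrestin recruitment to AT1 measured by enzyme fragment complementation luminescence.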 Type of assay: functional.

Assay [12] has as its target T4, Sphingosine 1-phosphate receptor 4 (Homo sapiens, UniProt O95977).
T4 sequence (O95977 whole entry): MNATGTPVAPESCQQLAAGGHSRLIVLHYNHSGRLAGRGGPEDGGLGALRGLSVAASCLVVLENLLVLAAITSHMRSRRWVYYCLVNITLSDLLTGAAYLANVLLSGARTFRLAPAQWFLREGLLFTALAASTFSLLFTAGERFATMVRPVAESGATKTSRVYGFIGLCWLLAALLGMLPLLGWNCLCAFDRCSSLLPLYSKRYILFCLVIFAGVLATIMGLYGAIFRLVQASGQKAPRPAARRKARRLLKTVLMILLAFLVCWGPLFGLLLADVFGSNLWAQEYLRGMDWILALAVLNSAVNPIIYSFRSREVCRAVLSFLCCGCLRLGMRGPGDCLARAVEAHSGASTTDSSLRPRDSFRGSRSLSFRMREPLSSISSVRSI
In words: Fluorescence dose response cell-based high throughput screening assay for antagonists of the Sphingosine 1-Phosphate Receptor 4 (S1P4). [Related pubchem assays: 1524 (Confirmation in triplicates.), 1510 (Primary screen.)]. It is filed as functional.

Assay [13] deals with UDP-galactopyranose mutase (Mycobacterium tuberculosis, UniProt P9WIQ1). Kind of assay: Inhibitors of Mycobacterium tuberculosis UDP-galactopyranose mutase (UGM) enzyme Measured in Biochemical System Using Plate Reader - 2105-02_Inhibitor_Dose_CherryPick_Activity. [Related pubchem assays (depositor defined):AID504439].

Voltage-gated N-type calcium channel alpha-1B subunit/Amyloid beta A4 precursor protein-binding family A member 1, sequence (Q00975 whole entry): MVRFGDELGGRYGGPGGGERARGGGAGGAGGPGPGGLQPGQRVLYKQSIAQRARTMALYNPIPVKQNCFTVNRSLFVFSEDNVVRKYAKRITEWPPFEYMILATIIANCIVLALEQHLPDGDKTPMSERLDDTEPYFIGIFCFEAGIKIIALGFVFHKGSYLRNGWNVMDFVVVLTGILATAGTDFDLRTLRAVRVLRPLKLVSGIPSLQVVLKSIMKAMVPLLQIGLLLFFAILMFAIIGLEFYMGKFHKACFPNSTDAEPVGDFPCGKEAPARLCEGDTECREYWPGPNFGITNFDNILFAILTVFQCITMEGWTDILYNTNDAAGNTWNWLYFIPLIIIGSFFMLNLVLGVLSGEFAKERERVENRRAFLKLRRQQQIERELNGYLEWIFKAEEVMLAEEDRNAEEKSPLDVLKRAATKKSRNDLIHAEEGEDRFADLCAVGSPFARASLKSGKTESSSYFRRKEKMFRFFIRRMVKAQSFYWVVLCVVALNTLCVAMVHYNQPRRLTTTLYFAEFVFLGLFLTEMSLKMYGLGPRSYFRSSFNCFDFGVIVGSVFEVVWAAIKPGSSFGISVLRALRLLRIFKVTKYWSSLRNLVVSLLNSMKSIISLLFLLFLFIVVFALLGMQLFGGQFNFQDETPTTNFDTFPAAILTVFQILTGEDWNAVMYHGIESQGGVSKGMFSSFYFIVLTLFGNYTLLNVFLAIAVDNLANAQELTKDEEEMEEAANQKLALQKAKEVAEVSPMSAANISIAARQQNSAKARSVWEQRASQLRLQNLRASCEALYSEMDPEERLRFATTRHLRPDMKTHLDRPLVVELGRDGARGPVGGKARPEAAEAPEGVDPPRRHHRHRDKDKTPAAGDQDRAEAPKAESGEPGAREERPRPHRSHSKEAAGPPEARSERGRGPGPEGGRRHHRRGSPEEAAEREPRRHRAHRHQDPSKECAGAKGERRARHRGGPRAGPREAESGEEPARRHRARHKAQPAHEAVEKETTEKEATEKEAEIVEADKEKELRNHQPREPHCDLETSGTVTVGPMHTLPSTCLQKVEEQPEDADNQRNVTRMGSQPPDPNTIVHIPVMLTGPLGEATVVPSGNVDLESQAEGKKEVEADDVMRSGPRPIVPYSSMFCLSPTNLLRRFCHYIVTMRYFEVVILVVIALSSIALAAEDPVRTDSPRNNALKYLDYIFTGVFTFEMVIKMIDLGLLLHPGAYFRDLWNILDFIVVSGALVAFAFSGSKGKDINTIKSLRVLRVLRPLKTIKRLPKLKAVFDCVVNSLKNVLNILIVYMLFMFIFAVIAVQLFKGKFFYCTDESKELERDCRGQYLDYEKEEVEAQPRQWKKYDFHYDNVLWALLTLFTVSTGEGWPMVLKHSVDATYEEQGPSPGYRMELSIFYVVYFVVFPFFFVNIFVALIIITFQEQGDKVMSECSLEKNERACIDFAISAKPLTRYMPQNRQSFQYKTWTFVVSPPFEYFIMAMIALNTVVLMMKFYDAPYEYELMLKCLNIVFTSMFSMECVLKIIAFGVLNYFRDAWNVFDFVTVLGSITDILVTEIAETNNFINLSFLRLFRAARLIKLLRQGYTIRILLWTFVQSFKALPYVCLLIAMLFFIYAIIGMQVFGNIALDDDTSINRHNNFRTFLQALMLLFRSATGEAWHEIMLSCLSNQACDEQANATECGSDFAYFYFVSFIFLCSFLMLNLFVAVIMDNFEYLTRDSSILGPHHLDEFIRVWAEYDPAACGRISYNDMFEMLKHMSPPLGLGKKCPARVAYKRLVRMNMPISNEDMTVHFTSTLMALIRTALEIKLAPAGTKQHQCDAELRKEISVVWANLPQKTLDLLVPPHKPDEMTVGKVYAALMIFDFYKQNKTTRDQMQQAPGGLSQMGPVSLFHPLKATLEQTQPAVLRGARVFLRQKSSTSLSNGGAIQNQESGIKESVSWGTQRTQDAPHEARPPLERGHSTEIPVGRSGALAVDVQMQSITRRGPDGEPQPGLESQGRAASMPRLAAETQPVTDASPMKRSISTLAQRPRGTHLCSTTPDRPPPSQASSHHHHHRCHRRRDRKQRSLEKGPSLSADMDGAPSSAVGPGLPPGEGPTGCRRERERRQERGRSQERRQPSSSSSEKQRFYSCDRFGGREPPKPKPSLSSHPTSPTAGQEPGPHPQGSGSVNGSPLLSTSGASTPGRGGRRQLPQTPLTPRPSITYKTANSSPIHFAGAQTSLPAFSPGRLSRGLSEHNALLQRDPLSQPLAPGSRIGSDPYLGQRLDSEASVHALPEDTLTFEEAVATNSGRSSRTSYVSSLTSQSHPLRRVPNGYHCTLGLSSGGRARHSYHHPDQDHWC
Voltage-gated N-type calcium channel alpha-1B subunit/Amyloid beta A4 precursor protein-binding family A member 1, sequence (Q02410 whole entry): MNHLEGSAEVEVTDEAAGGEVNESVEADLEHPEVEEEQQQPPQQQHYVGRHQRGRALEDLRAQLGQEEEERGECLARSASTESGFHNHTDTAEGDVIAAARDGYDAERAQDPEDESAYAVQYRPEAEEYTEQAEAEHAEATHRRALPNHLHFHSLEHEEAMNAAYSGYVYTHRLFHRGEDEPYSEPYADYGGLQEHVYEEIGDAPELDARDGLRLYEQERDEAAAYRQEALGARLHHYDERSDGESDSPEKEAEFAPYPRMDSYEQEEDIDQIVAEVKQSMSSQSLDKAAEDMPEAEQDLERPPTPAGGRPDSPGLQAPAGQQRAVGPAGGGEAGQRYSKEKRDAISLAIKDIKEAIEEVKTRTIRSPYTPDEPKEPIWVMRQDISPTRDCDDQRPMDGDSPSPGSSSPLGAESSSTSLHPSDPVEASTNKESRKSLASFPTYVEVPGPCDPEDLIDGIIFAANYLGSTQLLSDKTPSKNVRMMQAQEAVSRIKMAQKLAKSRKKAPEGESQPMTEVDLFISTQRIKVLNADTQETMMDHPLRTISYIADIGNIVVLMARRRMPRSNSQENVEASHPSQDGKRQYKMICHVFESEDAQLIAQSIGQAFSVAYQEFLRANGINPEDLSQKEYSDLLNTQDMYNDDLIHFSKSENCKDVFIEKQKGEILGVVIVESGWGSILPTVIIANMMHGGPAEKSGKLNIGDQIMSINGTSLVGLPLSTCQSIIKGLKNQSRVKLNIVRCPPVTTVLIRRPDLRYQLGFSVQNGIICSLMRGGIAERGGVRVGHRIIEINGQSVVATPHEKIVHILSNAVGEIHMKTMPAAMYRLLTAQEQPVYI
Caspase-7, sequence (P55210 24-198 limits assumed): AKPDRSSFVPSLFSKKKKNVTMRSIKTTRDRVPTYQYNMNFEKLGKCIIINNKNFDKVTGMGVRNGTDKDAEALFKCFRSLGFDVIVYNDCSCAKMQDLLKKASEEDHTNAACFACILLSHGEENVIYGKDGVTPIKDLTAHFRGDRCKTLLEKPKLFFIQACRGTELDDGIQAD
Caspase-7, sequence (P55210 207-303 limits assumed): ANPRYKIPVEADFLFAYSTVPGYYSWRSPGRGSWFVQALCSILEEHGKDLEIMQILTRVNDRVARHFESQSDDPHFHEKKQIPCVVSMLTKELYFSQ

With `O=C(O)c1ccc(NC2=C/C(=N/S(=O)(=O)c3ccccc3)c3ccccc3C2=O)cc1`, the figures for the IC50 in assay [1], in assay [2] and in assay [3] were 743 nM (active), 1380 nM (active) and > 122000 nM (inactive), respectively.
With `Nc1ccc2c(c1)C(=O)C(=O)c1ccccc1-2`, in assay [4], the EC50 was 8680 nM (inconclusive). In addition, in assay [5], the CC50 was 2740 nM (active). In addition, in [3], the IC50 is > 122000 nM (inactive).
For the compound `COc1cc(-c2ccc(Nc3ccccc3C(=O)O)c(OC)c2)ccc1Nc1ccccc1C(=O)O`, the IC50 in [6] was 30000 nM (active); in assay [7], 3910 nM (active).
Regarding `COC(=O)[C@@H]1[C@@H](C(=O)OC)C2(c3ccccc3-c3ccccc32)N(c2ccc(Cl)cc2)N1C#N`, in assay [8], the EC50 was 2240 nM (active).
In the case of `CCCC(=O)NC(c1ccccc1OC)c1ccc2cccnc2c1O` (stereo not drawn), the EC50 in assay [9] was 476 nM (active); in [8], 532 nM (active).
In the case of `COc1ccc(OC)c(Nc2cc3ccccc3c(O)n2)c1`, the IC50 in [1] was < 1550 nM (active); in [2], 2450 nM (active). Moreover, the AC50 in [10] was 5900 nM (active).
In the case of `Cc1ccc2nc(/C(C#N)=C\c3ccc([N+](=O)[O-])o3)[nH]c2c1`, the EC50 in assay [11] is > 100000 nM (inactive).
Regarding `COC(CNC(=O)c1ccc2c3c(onc13)-c1ccccc1C2=O)OC`, in assay [12], the IC50 is 1630 nM (active). Also, in assay [5], the CC50 was 7860 nM (active). Also, the AC50 in assay [13] is 2790 nM (active).

One may read the EC50 as the midpoint of the concentration-response curve. As a reminder, the CC50 is the concentration giving 50% cytotoxicity. In general, AC50 refers to the concentration at which the activity in the assay is half-maximal.
